# Laboratory results: patent US20220162192A1 (ESCAPE Bio, Inc., priority 2019, published 2022)
# Read-outs that look alike come from different tables or passages of the source.
# Key:
# [1] = biological target: T1, Recombinant G2019S-LRRK2 protein (Homo sapiens, UniProt Q5S007, G2019S); assay: LanthaScreen Kinase Activity Assay (TR-FRET), G2019S-LRRK2; format: biochemical; details: class symbols; 25 μM ATP, 400 nM LRRKtide, 2.9 nM kinase, 60 min at room temperature
# T1 construct: purchased Life Technologies PV4881
# T1 sequence (Q5S007 whole entry G2019S): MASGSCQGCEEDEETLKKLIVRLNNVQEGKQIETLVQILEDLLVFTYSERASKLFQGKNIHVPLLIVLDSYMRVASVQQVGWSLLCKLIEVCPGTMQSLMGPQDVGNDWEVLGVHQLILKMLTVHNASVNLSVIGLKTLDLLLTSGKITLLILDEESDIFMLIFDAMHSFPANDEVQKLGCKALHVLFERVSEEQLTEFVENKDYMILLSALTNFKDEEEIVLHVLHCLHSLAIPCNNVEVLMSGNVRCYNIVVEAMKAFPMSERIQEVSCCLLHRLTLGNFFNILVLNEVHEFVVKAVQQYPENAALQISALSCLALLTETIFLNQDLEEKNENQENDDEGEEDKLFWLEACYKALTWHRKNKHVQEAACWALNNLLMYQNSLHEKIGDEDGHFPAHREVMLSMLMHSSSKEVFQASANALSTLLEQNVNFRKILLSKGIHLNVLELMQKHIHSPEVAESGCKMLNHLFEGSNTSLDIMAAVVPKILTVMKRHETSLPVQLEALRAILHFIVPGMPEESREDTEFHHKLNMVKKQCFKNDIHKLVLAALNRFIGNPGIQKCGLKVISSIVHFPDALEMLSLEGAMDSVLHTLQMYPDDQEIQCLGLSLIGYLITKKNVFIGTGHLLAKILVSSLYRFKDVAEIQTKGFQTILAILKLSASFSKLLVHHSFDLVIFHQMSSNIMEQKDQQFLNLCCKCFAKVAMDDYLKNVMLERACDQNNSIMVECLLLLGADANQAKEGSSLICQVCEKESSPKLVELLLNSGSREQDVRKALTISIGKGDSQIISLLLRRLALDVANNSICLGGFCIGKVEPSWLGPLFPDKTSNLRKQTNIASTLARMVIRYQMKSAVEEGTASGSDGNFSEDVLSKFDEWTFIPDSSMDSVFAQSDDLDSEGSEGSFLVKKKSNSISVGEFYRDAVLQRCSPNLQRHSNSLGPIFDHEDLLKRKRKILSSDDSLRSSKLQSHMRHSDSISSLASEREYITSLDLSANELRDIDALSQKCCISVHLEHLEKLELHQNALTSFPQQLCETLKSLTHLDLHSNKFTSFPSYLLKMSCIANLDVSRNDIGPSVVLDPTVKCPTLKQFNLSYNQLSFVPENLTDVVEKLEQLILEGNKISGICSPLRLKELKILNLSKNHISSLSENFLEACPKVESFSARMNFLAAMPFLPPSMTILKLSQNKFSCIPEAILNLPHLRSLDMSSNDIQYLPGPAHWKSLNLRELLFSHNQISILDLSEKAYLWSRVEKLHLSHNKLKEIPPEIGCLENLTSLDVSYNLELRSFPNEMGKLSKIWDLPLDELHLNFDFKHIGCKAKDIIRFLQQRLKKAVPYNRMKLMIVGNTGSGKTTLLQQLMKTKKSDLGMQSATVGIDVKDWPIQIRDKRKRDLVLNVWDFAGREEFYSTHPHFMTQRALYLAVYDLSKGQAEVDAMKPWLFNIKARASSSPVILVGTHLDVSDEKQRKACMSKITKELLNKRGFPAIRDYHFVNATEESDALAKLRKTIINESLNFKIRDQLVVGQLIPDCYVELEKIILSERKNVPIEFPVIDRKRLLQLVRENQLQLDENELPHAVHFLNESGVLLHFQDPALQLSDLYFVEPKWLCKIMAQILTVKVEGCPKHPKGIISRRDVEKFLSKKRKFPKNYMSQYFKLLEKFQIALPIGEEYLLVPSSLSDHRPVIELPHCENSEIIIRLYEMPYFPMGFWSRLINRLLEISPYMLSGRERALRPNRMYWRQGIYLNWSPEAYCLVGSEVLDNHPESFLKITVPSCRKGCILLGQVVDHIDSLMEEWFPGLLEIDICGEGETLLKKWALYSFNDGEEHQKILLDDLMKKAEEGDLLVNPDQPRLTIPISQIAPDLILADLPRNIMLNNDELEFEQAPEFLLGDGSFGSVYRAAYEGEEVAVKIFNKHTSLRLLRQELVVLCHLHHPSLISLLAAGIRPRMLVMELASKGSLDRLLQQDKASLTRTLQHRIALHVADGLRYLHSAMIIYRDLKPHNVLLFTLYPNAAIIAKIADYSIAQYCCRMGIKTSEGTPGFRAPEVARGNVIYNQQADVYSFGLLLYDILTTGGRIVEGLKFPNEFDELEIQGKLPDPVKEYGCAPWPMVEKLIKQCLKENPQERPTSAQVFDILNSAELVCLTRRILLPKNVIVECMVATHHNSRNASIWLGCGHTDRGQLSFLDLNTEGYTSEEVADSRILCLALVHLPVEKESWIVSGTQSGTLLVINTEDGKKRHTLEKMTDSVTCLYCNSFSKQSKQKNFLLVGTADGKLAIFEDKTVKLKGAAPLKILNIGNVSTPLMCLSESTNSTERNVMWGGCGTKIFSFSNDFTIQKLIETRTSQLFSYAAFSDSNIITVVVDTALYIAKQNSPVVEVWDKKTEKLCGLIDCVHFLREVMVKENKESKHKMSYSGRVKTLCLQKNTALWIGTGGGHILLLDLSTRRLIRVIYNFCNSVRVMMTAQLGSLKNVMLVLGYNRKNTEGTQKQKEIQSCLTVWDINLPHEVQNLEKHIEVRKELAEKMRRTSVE
# Method in brief: (§1)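 Recombinant wild-type or G2019S LRRK2 (2.9 nM final) phosphorylated fluorescein-LRRKtide (400 nM) with 25 μM ATP in 50 mM Tris pH 8.5, 5 mM MgCl2, 1 mM EGTA, 0.01% Brij-35, 2 mM DTT for 60 min at RT. After EDTA stop, Tb-anti-pERM TR-FRET (520/495 nm ratio) was read. IC50 values came from 11-point, 3-fold compound dilutions.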
# [2] = biological target: T2, Recombinant wild type LRRK2 protein (Homo sapiens, UniProt Q5S007); assay: LanthaScreen Kinase Activity Assay (TR-FRET), wild type LRRK2; format: biochemical; details: 25 μM ATP, 400 nM LRRKtide, 2.9 nM kinase, 60 min at room temperature, read-out: LRRK2 WT IC50
# T2 construct: purchased Life Technologies PR8604B
# T2 sequence (Q5S007 whole entry): as the sequence (Q5S007 whole entry G2019S) above, with S2019G counted along it
# Method in brief: as §1
IC50 [1] [nM],IC50 ([2]; class symbols) [nM],IC50 ([2]; numeric bound instead of class symbol) [nM],Structure (SMILES)
≤ 100,≤ 100,,"Cn1ncc2c(F)c(C(=O)Nc3ccc4[nH]nc(-c5ccon5)c4c3)c(F)cc21 [Example 135, 4,6-Difluoro-N-(3-(isoxazol-3-yl)-1H-indazol-5-yl)-1-methyl-1H-indazole-5-carboxamide]"
1000 to 10000,,> 10000,"Cc1noc(C)c1-c1n[nH]c2ccc(NC(=O)c3c(F)cc4c(cnn4C)c3F)cc12 [Example 36, N-(3-(3,5-Dimethylisoxazol-4-yl)-1H-indazol-5-yl)-4,6-difluoro-1-methyl-1H-indazole-5-carboxamide]"
≤ 100,≤ 100,,"Cc1cc(-c2n[nH]c3ccc(NC(=O)c4c(F)cc5c(cnn5C)c4F)cc23)ccn1 [Example 37, 4,6-Difluoro-1-methyl-N-(3-(2-methylpyridin-4-yl)-1H-indazol-5-yl)-1H-indazole-5-carboxamide]"
≤ 100,≤ 100,,"O=C(Nc1ccc2[nH]nc(-c3ccccc3)c2c1)c1c(Cl)cn2cnnc2c1Cl [Example 63, 6,8-dichloro-N-(3-phenyl-1H-indazol-5-yl)-[1,2,4]triazolo[4,3-a]pyridine-7-carboxamide]"
≤ 100,100 to 1000,,"Cc1n[nH]c2ccc(NC(=O)c3c(F)cc4c(cnn4C)c3F)cc12 [Example 51, 4,6-Difluoro-1-methyl-N-(3-methyl-1H-indazol-5-yl)-1H-indazole-5-carboxamide]"
≤ 100,100 to 1000,,"Cn1ncc2c(F)c(C(=O)Nc3ccc4[nH]nc(-c5ccccc5F)c4c3)c(F)cc21 [Example 78, 4,6-Difluoro-N-(3-(2-fluorophenyl)-1H-indazol-5-yl)-1-methyl-1H-indazole-5-carboxamide]"
≤ 100,≤ 100,,"Cn1ncc2c(F)c(C(=O)Nc3ccc4[nH]nc(-c5ccoc5)c4c3)c(F)cc21 [Example 28, 4,6-Difluoro-N-(3-(furan-3-yl)-1H-indazol-5-yl)-1-methyl-1H-indazole-5-carboxamide]"
100 to 1000,100 to 1000,,"Cc1cc(C(=O)Nc2ccc3[nH]nc(-c4ccncc4)c3c2)cc2nn[nH]c12 [Example 13, 7-Methyl-N-(3-(pyridin-4-yl)-1H-indazol-5-yl)-1H-benzo[d][1,2,3]triazole-5-carboxamide]"
≤ 100,≤ 100,,"Cn1cnc2ccc(C(=O)Nc3ccc4[nH]nc(-c5ccoc5)c4c3)cc21 [Example 131, N-(3-(Furan-3-yl)-1H-indazol-5-yl)-1-methyl-1H-benzo[d]imidazole-6-carboxamide]"
1000 to 10000,1000 to 10000,,"Cc1n[nH]c2ccc(NC(=O)c3ccc4nn[nH]c4c3)cc12 [Example 9, N-(3-Methyl-1H-indazol-5-yl)-1H-benzo[d][1,2,3]triazole-6-carboxamide]"
≤ 100,100 to 1000,,"O=C(Nc1ccc2[nH]nc(-c3ccoc3)c2c1)C1CCc2nncn2C1 (single isomer, unassigned) [Example 162b]"
100 to 1000,1000 to 10000,,"Cn1ncc2c(F)c(C(=O)Nc3ccc4[nH]nc(-c5cnccc5C(F)(F)F)c4c3)c(F)cc21 [Example 91, 4,6-Difluoro-1-methyl-N-(3-(4-(trifluoromethyl)pyridin-3-yl)-1H-indazol-5-yl)-1H-indazole-5-carboxamide]"
≤ 100,100 to 1000,,"Cc1c(C(=O)Nc2ccc3[nH]nc(-c4ccccc4)c3c2)ccc2cncn12 [Example 62, 5-Methyl-N-(3-phenyl-1H-indazol-5-yl)imidazo[1,5-a]pyridine-6-carboxamide]"
≤ 100,≤ 100,,"COc1cncc(-c2n[nH]c3ccc(NC(=O)c4c(F)cc5c(cnn5C)c4F)cc23)c1 [Example 82, 4,6-Difluoro-N-(3-(5-methoxypyridin-3-yl)-1H-indazol-5-yl)-1-methyl-1H-indazole-5-carboxamide]"
≤ 100,100 to 1000,,"Cn1ncc2nc(C(=O)Nc3ccc4[nH]nc(-c5cnco5)c4c3)ccc21 [Example 165, 1-Methyl-N-(3-(oxazol-5-yl)-1H-indazol-5-yl)-1H-pyrazolo[4,3-b]pyridine-5-carboxamide]"
100 to 1000,100 to 1000,,"Cc1nn2ccncc2c1C(=O)Nc1ccc2[nH]nc(-c3ccoc3)c2c1 [Example 164, N-(3-(furan-3-yl)-1H-indazol-5-yl)-2-methylpyrazolo[1,5-a]pyrazine-3-carboxamide]"
